The series in a line: in vitro. The conditions noted are these: human, Caco-2, pH 7.4, Caco-2 Permeability (Papp) (A→B); for Papp A→B at 120 min, 1 μg/mL: compound alone, 1 μg/mL in HBSS buffer, pH 7.4, 120 min. How it is done: The Caco-2 permeability of two Withania somnifera extracts prepared by the claimed method of the present application (EXT001 and EXT002) and one Withania somnifera extract prepared using an alternative method (ALT001) were measured for comparison. Caco-2 cells (ATCC HTB-37) were grown on 24 well Transwell plates for 21 days. as per internal protocol number MET-TDDC-011. On the day of experiment the transepithelial electrical resistance (TEER) was measured across the monolayer and wells with TEER greater than 200 ohm*cm^2 were used for the permeability assessment. Incubation buffer consisted of Hanks balanced salt solution (HBSS) without CaCl2 and MgCl2, adjusted to pH 7.4, for both the donor, and the receiver. […] Lucifer yellow was used as zero permeability reference to check membrane integrity.
The compound solutions were prepared in HBSS buffer (pH 7.4) at a concentration of 1 μg/mL for permeability assessment. 5 mg each of Withania somnifera extracts EXT002 and EXT001 were added to 5 mL of HBSS buffer and vortexed for 2 hours followed by filtration through 0.22 μm syringe filter. These solutions were used for permeability determination. […] The methanolic extract was filtered through 0.22 μm filter. This extract was concentrated to 1 mL by passing nitrogen gas at 40° C. for 1 hr. Then 20 μL of this extract was spiked in 2 mL of HBSS buffer and filtered through 0.22 μm filter. This solution was used for the permeability study.
The permeability assay was performed in triplicate for each compound or product. Prior to the permeability assay, the transwells were washed with in pre-warmed HBSS buffer. The medium in the insert was aspirated and then the transwells were transferred to a 24-well plate with blank HBSS buffer (600 μL) in each well, and compound solution (102.5 μL, of which 2.5 μL was sampled immediately as the zero-minute donor) was added to each insert. Receiver samples (25 μL) were collected at 60, and 120 minutes, and replaced with an equal volume of fresh pre-warmed receiver buffer (at 60 minutes). The donor side was sampled (2.5 μL) at 0 and 120 minutes. The assay was conducted at 37° C. in a humidified CO2 incubator.
For analysis, any necessary dilutions of samples were performed with HBSS, pH 7.4. 25 μL of sample was mixed with 100 μL of acetonitrile with 25 ng/mL of mitragynine internal standard (IS), and then mixed and filtered through 0.4 μm filter plate to by centrifugation for 5 minutes at 2,000 rpm to a polypropylene 96-well plate for analysis. The samples were assayed by LC-MS/MS method.
The apparent permeability coefficient (Papp) and recovery were calculated as follows: […]
Where, VA is the volume of the acceptor compartment; A is the diffusional area of the membrane (0.33 cm^2); T is the length of study; [Drug]ini,donor is the donor compound amount at 0 minute; [Drug]acceptor is the acceptor compound amount at 120 minute. The compounds with permeability above 5×10^−6 cm/s will be considered high permeability compounds while those with permeability below 5×10^−6 cm/s will be considered low permeability compounds.

Each structure is given as a SMILES string.

In turn, `NS(=O)(=O)c1cc2c(cc1Cl)N=CNS2(=O)=O` [Chlorothiazide, reference compound] had a Papp A→B at 120 min, 5 μg/mL of 4.2 ± 1.79 ×10⁻⁶ cm/s. For `CC1=C(CO)C(=O)O[C@@H]([C@@H](C)[C@H]2CC[C@H]3[C@@H]4C[C@H]5O[C@]56[C@@H](O)C=CC(=O)[C@]6(C)[C@H]4CC[C@]23C)C1` [Withaferin A, withaferin A], the apparent permeability from apical to basolateral (Papp A→B) at 120 min, 1 μg/mL amounted to 4.55 ± 0.81 ×10⁻⁶ cm/s. `CC1=C(C)C(=O)O[C@@H]([C@](C)(O)[C@H]2CC[C@H]3[C@@H]4[C@@H]5O[C@@H]5[C@@]5(O)CC=CC(=O)[C@]5(C)[C@H]4CC[C@]23C)C1` [Withanolide A, withanolide A]: the Papp A→B at 120 min, 1 μg/mL came to 3.23 ± 0.5 ×10⁻⁶ cm/s. The same measure, in the same setting: next, `CC1=C(C)C(=O)O[C@@H]([C@@H](C)[C@H]2CC[C@H]3[C@@H]4CC=C5C[C@@H](O[C@@H]6O[C@H](CO[C@@H]7O[C@H](CO)[C@@H](O)[C@H](O)[C@H]7O)[C@@H](O)[C@H](O)[C@H]6O)C[C@H](O)[C@]5(C)[C@H]4CC[C@]23C)C1` [Withanolside V, withanoside V]: 4.03 ± 0.87 ×10⁻⁶ cm/s; `CC1=C(CO)C(=O)O[C@@H]([C@@H](C)[C@H]2CC[C@H]3[C@@H]4CC=C5C[C@@H](O[C@@H]6O[C@H](CO[C@@H]7O[C@H](CO)[C@@H](O)[C@H](O)[C@H]7O)[C@@H](O)[C@H](O)[C@H]6O)C[C@H](O)[C@]5(C)[C@H]4CC[C@]23C)C1` [Withanoside IV, withanoside IV]: 5.42 ± 0.69 ×10⁻⁶ cm/s.
